pIC50: −log10 of the molar value. “Also recorded” adds a separate entry of the source. Like-named read-outs stand apart in the source and are kept apart here.
How the values were obtained:
HIV-1LAI = assay: MTT assay, MT-2 cells exposed to HIV-1LAI (acute HIV-1 infection assay); type: cell-based; details: Human immunodeficiency virus 1, MT2, 168 h
Description: Drug susceptibility assay. The susceptibility of HIV-1LAI, HIV-2EHO, HIV-2ROD, to various drugs and the cytotoxicity of those drugs was determined by using the MTT assay. Briefly, MT-2 cells (2×10^4/mL) were exposed to 100 TCID50s (50% tissue culture infectious doses) of HIV-1LAI, HIV-2EHO, or HIV-2ROD in the presence or absence of various concentrations of drugs in 96-well microculture plates and were incubated at 37° C. for 7 days. After 100 μL of the medium was removed from each well, 3-(4,5-dimethylthiazol-2-yl)-2,5-diphenyltetrazolium bromide (MTT) solution (10 μL, 7.5 mg/mL in phosphate-buffered saline) was added to each well in the plate, followed by incubation at 37° C. for 4 hours. […] All assays were performed in duplicate or triplicate. To determine the sensitivity of HIV-1Ba-L, HIV-1ERS104 pre, and clinical multi-drug-resistant HIV-1 isolates and different subtypes of HIV-1 isolates to drugs, phytohemagglutinin-activated peripheral blood mononuclear cells (PHA-PBMs; 10^6/mL) were exposed to 50 TCID50 (50% tissue infectious dose) of each HIV-1 isolate and cultured in the presence or absence of various concentrations of drugs in 10-fold serial dilutions in 96-well microtiter culture plates. To determine the drug susceptibility of certain laboratory HIV-1 strains (HIV-1NL4-3), MT-4 cells were used as target cells. MT-4 cells (10^5/mL) were exposed to 100 TCID50 of wild type HIV-1NL4-3 and PI-resistant HIV-1NL4-3 in the presence or absence of various concentrations of drugs and were incubated at 37° C. On day 7 of culture, the supernatant was harvested and the amount of p24 Gag protein was determined by using a fully automated chemiluminescent enzyme immunoassay system (Lumipulse F; Fujirebio Inc., Tokyo, Japan) (22). […] All assays were performed in duplicate or triplicate.

[1] = target: T1, CFP- and YFP-tagged HIV-1 protease subunits (Human immunodeficiency virus type 1 group M subtype B, UniProt P12497); type: cell-based; details: Cos-7 cells; for inhibition of protease dimerization: 1 μM
T1 construct: expressed in transfected cells; host or cells: Cos-7
Description: After 72 hr, cultured cells were examined in the FRET-HIV-1 assay system using confocal microscopy Fluoview FV500 confocal laser scanning microscope, and CFP^A/B were determined and plotted. […] The FRET efficiency was determined following acceptor photobleaching as previously described (Bastiaens et al., EMBO 1996; Siegel et al., Science's stke 2000; Firulli et al., Nature genetics, 2005; Szczesna et al., JBC 2003). Dequenching of the donor CFP by selective photobleaching of the acceptor YFP was performed by first obtaining YFP and CFP images at the same focal plane, followed by illuminating for 3 min the same image at wavelength of 488 nm with a laser power set at the maximum intensity to bleach YFP and re-capturing the same CFP and YFP images. The changes in the CFP and YFP fluorescence intensity in the images of selected regions were examined and quantified using Olympus FV500 Image software system. Background values were obtained from the regions where no cells were present and were subtracted from the values for the cells examined in all calculations. For each chimeric protein, the data were obtained from at least three independent experiments. FRET efficiency was determined using the formula: ET=(1−(IDA/ID))×100, where IDA and ID represent the steady-state donor fluorescence in the presence and absence of the acceptor, respectively. Digitized image data obtained from the experiment were prepared for presentation using Photoshop 6.0 (Adobe systems, Mountain View, Calif.). Ratios of intensities of ECFP fluorescence after photobleaching to ECFP fluorescence prior to photobleaching were determined. The ratios of more than 1 indicate that dimerization of CFP- and YFP-tagged protease subunits occurred and those of less than 1 indicate that dimerization was blocked by the test agent.
Generation of FRET-based HIV-1 expression assay. The basic concepts of the intermolecular fluorescence resonance energy transfer (FRET)-based HIV-1-expression assay (FRET-HIV-1 assay) are shown in FIG. 7. Within a plasmid (pHIV-1NL4-3), which encodes a full-length molecular infectious HIV-1 clone, the gene encoding a cyan fluorescent donor protein (CFP) was attached to the downstream end (C-terminus) of the gene encoding an HIV-1 protease subunit through the flexible linker added (five alanines), generating pHIV-1NL4-3/CFP (FIG. 7A). Within the other plasmid (pHIV-1NL4-3), the gene encoding a yellow fluorescent acceptor protein (YFP) was attached to the downstream end of protease-encoding gene in the same manner, generating pHIV-1NL4-3/YFP. Both CFP and YFP were designed to have phenylalanine and proline in the connection with reverse transcriptase so that the protease is cleaved from reverse transcriptase when two subunits dimerize and the dimerized protease acquires enzymatic activity. […] A focused laser beam excitation of CFP (triggered by Helium-Cadmium laser) results in rapid energy transfer to YFP, and most of the fluorescence photons are emitted by YFP (Miyawaki et al. Nature 388(6645):882-887 (1997)). If the dimerization is blocked, the average distance between CFP and YFP becomes larger and the energy transfer rate is decreased and the fraction of photons emitted by YFP is lowered.
In order to interpret the energy transfer efficiency quantitatively, an acceptor photobleaching technique was used, in which the change in CFP emission quenching is measured by comparing the value before and after selectively photobleaching YFP, which prevents problems associated with variable expression levels.

[2] = target: dimerized mature HIV-1 protease (Human immunodeficiency virus type 1 group M subtype B, UniProt P12497); assay: Assay for effects on dimerized mature protease (cycloheximide, FRET); type: cell-based; details: 1 μM added on day 5 after cycloheximide 50 μg/ml
Description: […] Cellular protein synthesis was monitored every 24 hours by determining levels of p24 Gag protein produced into culture medium using the fully automated chemiluminescent enzyme immunoassay system (Lumipulse F; Fujirebio Inc., Tokyo, Japan). The cells were exposed to TMC114 (1 μM) on day 5 and beyond of culture and analyzed under Fluoview FV500 confocal laser scanning microscope (OLYMPUS Optical Corp) at room temperature.
When the CFP^A/B ratios determined were greater than 1.0, it was determined that HIV-1 protease had been generated and dimerization had occurred. The production of HIV-1 was monitored every 24 hours following transfection by determining levels of p24 Gag protein produced into culture medium as described by Koh et al. Antimicrob Agents Chemother 47:3123-9 (2003).
Dissociation of already formed dimer. TMC114 was examined for its ability to dissociate the protease once dimerized within cells producing infectious HIV-1 virions. Cos-7 cells were co-transfected with wild-type pNLPR-CFP and -YFP plasmids, exposed to cycloheximide (50 μg/mL) in 24, 48, 72, and 96 hrs of culture and beyond, the cells exposed to 1 μM TMC114 on day 5 of culture and beyond, cellular protein synthesis was monitored every 24 hours by determining levels of p24 Gag protein produced into culture medium, and the values of the ratio were determined at various time points. […]

SMILES	pIC50 (HIV-1LAI; read-out: IC50 against HIV-1LAI, MT-2 cells, 100 TCID50 of HIV-1LAI, MTT assay on day 7)	IC50 (HIV-1LAI; read-out: MTT assay (IC50, nM), Human CD4+ MT-2 cells, 100 TCID50 of HIV-1LAI, day 7) [nM]	inhibition of protease dimerization [1]	inhibition of protease dimerization ([1]; listed as TMC114)	concentration effectively blocking FRET / disrupting protease dimerization ([1]; in culture) [µM]	dissociation of already dimerized protease [2]	dissociation of already dimerized protease ([2]; listed as TMC114)	melting point [°C]
CC(C)CN(C[C@@H](O)[C@H](Cc1ccccc1)NC(=O)O[C@H]1CO[C@H]2OCC[C@H]21)S(=O)(=O)c1ccc(N)cc1 [DRV, darunavir]	8.52	~3	disrupt protease dimerization	dimerization was effectively blocked; also recorded: blocked the dimerization; also recorded: blocked protease dimerization	0.1	failed to dissociate mature protease dimer	no inhibition of FRET was detected; also recorded: did not appear to reverse the dimerization	–
CC(C)CN(C[C@@H](O)[C@H](Cc1ccccc1)NC(=O)OC1CO[C@H]2OCCC12)S(=O)(=O)c1cccc(O)c1 (some centres unmarked)	–	–	–	–	–	–	–	90 to 93

— patent US9808527B2, “Methods and compositions for treating HIV infections” (priority 2006, dated 2017)
